Data published in US20240425479A1, “HALO-SUBSTITUTED AMINO AZA-HETEROARYL COMPOUNDS AS INHIBITORS OF THE HAEMATOPOIETIC PROGENITOR KINASE 1 (HPK1)” (priority 2021, published 2024).

Biological target: T1, Recombinant (1-346) HPK1 (h) (Homo sapiens, UniProt Q92918)
T1 construct: Recombinant (1-346) HPK1 (h) is incubated with 8 mM MOPS pH 7.0
T1 sequence (Q92918 1-346): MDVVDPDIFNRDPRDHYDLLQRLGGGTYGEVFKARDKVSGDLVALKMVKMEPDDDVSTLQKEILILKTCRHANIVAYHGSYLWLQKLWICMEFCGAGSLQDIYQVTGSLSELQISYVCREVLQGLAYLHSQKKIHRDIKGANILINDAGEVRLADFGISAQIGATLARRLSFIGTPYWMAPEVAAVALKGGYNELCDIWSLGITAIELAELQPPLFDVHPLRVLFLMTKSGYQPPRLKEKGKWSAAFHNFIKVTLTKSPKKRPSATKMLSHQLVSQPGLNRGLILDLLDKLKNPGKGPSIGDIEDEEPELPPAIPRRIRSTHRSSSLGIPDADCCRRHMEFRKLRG
Assay: HPK1 human STE kinase enzymatic radiometric assay
Assay type: biochemical
Settings: read-out: HPK1 IC50 nM Range
Procedure: (a) HPK1 Human STE Kinase Enzymatic Radiometric Assay
A stock solution of 10 mM of test compound is prepared in DMSO. The compound plate was prepared by 3-fold and 9-point serial dilutions. Recombinant (1-346) HPK1 (h) is incubated with 8 mM MOPS pH 7.0, 0.2 mM EDTA, 0.33 mg/mL myelin basic protein, 10 mM MgAcetate and [gamma-33P]-ATP (specific activity and concentration as required). The reaction is initiated by the addition of the Mg/ATP mix. After incubation for 40 minutes at RT, the reaction is stopped by the addition of phosphoric acid to a concentration of 0.5%, 10 μL of the reaction is then spotted onto a P30 filtermat and washed four times for 4 minutes in 0.425% phosphoric acid and once in methanol prior to drying and scintillation counting. For more details of kinase assay protocols, see: Gao, Y. et. al.; Biochem J.451 (2): 313-328, 2013.

IC50 [nM]	SMILES
11 to 100	CN(C)Cc1cccc(-c2nc(-c3cc4c(cc3F)C(=O)NCC4)c(N)nc2F)c1 [Example I-278, 6-(3-amino-6-(3-((dimethylamino)methyl)phenyl)-5-fluoropyrazin-2-yl)-7-fluoro-3,4-dihydroisoquinolin-1(2H)-one]
11 to 100	COc1ccc(-c2nc(-c3ccc4c(c3)CCNC4=O)c(N)nc2F)cc1CN(C)C [Example I-250, 6-(3-amino-6-(3-((dimethylamino)methyl)-4-methoxyphenyl)-5-fluoropyrazin-2-yl)-3,4-dihydroisoquinolin-1(2H)-one]
0.1 to 10	Cc1[nH]c(=O)c2c(F)cc(-c3nc(-c4ccc(C5CCOCC5)c(CN(C)C)c4)c(F)nc3N)cc2c1Cl [Example I-104, 6-(3-amino-6-(3-((dimethylamino)methyl)-4-(tetrahydro-2H-pyran-4-yl)phenyl)-5-fluoropyrazin-2-yl)-4-chloro-8-fluoro-3-methylisoquinolin-1(2H)-one]
11 to 100	CCN(C)Cc1cc(-c2nc(-c3ccc4c(c3)CCNC4=O)c(N)nc2F)cc(C)c1OC [Example I-297, 6-(3-amino-6-(3-((ethyl(methyl)amino)methyl)-4-methoxy-5-methylphenyl)-5-fluoropyrazin-2-yl)-3,4-dihydroisoquinolin-1(2H)-one]
0.1 to 10	Nc1nc(F)c(-c2ccc(N3CCOCC3)c(CN3CCCC3)c2)nc1-c1ccc2c(=O)[nH]cc(F)c2c1 [Example I-200, 6-(3-amino-5-fluoro-6-(4-morpholino-3-(pyrrolidin-1-ylmethyl)phenyl)pyrazin-2-yl)-4-fluoroisoquinolin-1(2H)-one]
0.1 to 10	COc1ccc(-c2nc(-c3cc4c(cc3F)C(=O)NCC4)c(N)nc2F)cc1CN(C)C [Example I-249, 6-(3-amino-6-(3-((dimethylamino)methyl)-4-methoxyphenyl)-5-fluoropyrazin-2-yl)-7-fluoro-3,4-dihydroisoquinolin-1(2H)-one]
11 to 100	Cc1c[nH]c(=O)c2ccc(-c3nc(-c4cccc(CN(C)C)c4)c(F)nc3N)cc12 [Example I-280, 6-(3-amino-6-(3-((dimethylamino)methyl)phenyl)-5-fluoropyrazin-2-yl)-4-methylisoquinolin-1(2H)-one]
101 to 1000	CN(C)Cc1cc(-c2nc(-c3cc(F)c4c(c3)CCNC4=O)c(N)nc2F)ccc1F [Example I-274, 6-(3-amino-6-(3-((dimethylamino)methyl)-4-fluorophenyl)-5-fluoropyrazin-2-yl)-8-fluoro-3,4-dihydroisoquinolin-1(2H)-one]

The remaining lines, values behind:

SMILES	IC50 [nM]
CC(C)N1CCN(c2ccc(-c3nc(-c4cc5c(cc4F)C(=O)NCC5)c(N)nc3F)cc2)[C@H](C)C1 [Example I-51, (R)-6-(3-amino-5-fluoro-6-(4-(4-isopropyl-2-methylpiperazin-1-yl)phenyl)pyrazin-2-yl)-7-fluoro-3,4-dihydroisoquinolin-1(2H)-one]	0.1 to 10
Nc1nc(F)c(-c2ccc(N3CCN(CCC(F)F)CC3)cc2)nc1-c1ccc2c(=O)[nH]ccc2c1 [Example I-86, 6-(3-amino-6-(4-(4-(3,3-difluoropropyl)piperazin-1-yl)phenyl)-5-fluoropyrazin-2-yl)isoquinolin-1(2H)-one]	11 to 100
Nc1nc(F)c(-c2ccc(N3CCN(CCCC(F)F)CC3)cc2)nc1-c1ccc2c(c1)CCNC2=O [Example I-68, 6-(3-amino-6-(4-(4-(4,4-difluorobutyl)piperazin-1-yl)phenyl)-5-fluoropyrazin-2-yl)-3,4-dihydroisoquinolin-1(2H)-one]	0.1 to 10
COC1CN(Cc2cc(-c3nc(-c4ccc5c(c4)CCNC5=O)c(N)nc3F)ccc2C2CCOCC2)C1 [Example I-193, 6-(3-amino-5-fluoro-6-(3-((3-methoxyazetidin-1-yl)methyl)-4-(tetrahydro-2H-pyran-4-yl)phenyl)pyrazin-2-yl)-3,4-dihydroisoquinolin-1(2H)-one]	0.1 to 10
Cc1nc2cc(-c3nc(-c4ccc(C5CCOCC5)c(CN5CCC[C@@H]5C)c4)c(F)nc3N)cc(F)c2c(=O)[nH]1 [Example I-219, (S)-7-(3-amino-5-fluoro-6-(3-((2-methylpyrrolidin-1-yl)methyl)-4-(tetrahydro-2H-pyran-4-yl)phenyl)pyrazin-2-yl)-5-fluoro-2-methylquinazolin-4(3H)-one]	101 to 1000
Cc1nc2cc(-c3nc(-c4ccc(N5C[C@@H](C)N(C)[C@@H](C)C5)cc4)c(F)nc3N)ccc2c(=O)[nH]1 [Example I-95, 7-(3-amino-5-fluoro-6-(4-((3R,5S)-3,4,5-trimethylpiperazin-1-yl)phenyl)pyrazin-2-yl)-2-methylquinazolin-4(3H)-one]	11 to 100
Cc1cc2cc(-c3nc(-c4ccc(C5CCOCC5)c(CN(C)C)c4)c(F)nc3N)c(F)cc2c(=O)[nH]1 [Example I-184, 6-(3-amino-6-(3-((dimethylamino)methyl)-4-(tetrahydro-2H-pyran-4-yl)phenyl)-5-fluoropyrazin-2-yl)-7-fluoro-3-methylisoquinolin-1(2H)-one]	0.1 to 10
Nc1nc(F)c(-c2ccc(C3CCOCC3)c(CN3CCCC3)c2)nc1-c1cc(F)c2c(c1)CCNC2=O [Example I-149, 6-(3-amino-5-fluoro-6-(3-(pyrrolidin-1-ylmethyl)-4-(tetrahydro-2H-pyran-4-yl)phenyl)pyrazin-2-yl)-8-fluoro-3,4-dihydroisoquinolin-1(2H)-one]	0.1 to 10
C[C@H]1CN(c2ccc(-c3nc(-c4cc5c(cc4F)C(=O)NCC5)c(N)nc3F)cc2CN(C)C)CCO1 [Example I-212, (S)-6-(3-amino-6-(3-((dimethylamino)methyl)-4-(2-methylmorpholino)phenyl)-5-fluoropyrazin-2-yl)-7-fluoro-3,4-dihydroisoquinolin-1(2H)-one]	0.1 to 10
CN(C)Cc1cc(-c2nc(-c3cc4c(cc3F)C(=O)NCC4)c(N)nc2F)ccc1F [Example I-273, 6-(3-amino-6-(3-((dimethylamino)methyl)-4-fluorophenyl)-5-fluoropyrazin-2-yl)-7-fluoro-3,4-dihydroisoquinolin-1(2H)-one]	11 to 100
COC1CCN(Cc2cc(-c3nc(-c4ccc5c(c4)CCNC5=O)c(N)nc3F)ccc2N2CCSCC2)CC1 [Example I-126, 6-(3-amino-5-fluoro-6-(3-((4-methoxypiperidin-1-yl)methyl)-4-thiomorpholinophenyl)pyrazin-2-yl)-3,4-dihydroisoquinolin-1(2H)-one]	11 to 100
Cc1[nH]c(=O)c2ccc(-c3nc(-c4ccc(N5CCN(CC6CC6)CC5)cc4)c(F)nc3N)cc2c1Cl [Example I-122, 6-(3-amino-6-(4-(4-(cyclopropylmethyl)piperazin-1-yl)phenyl)-5-fluoropyrazin-2-yl)-4-chloro-3-methylisoquinolin-1(2H)-one]	0.1 to 10
Cc1nc2cc(-c3nc(-c4ccc(N5CCN(CCCC(F)F)CC5)cc4)c(F)nc3N)ccc2c(=O)[nH]1 [Example I-81, 7-(3-amino-6-(4-(4-(4,4-difluorobutyl)piperazin-1-yl)phenyl)-5-fluoropyrazin-2-yl)-2-methylquinazolin-4(3H)-one]	11 to 100
Cc1nc2cc(-c3nc(-c4ccc(C5CCOCC5)c(CN5CCC[C@H]5C)c4)c(F)nc3N)cc(F)c2c(=O)[nH]1 [Example I-217, (R)-7-(3-amino-5-fluoro-6-(3-((2-methylpyrrolidin-1-yl)methyl)-4-(tetrahydro-2H-pyran-4-yl)phenyl)pyrazin-2-yl)-5-fluoro-2-methylquinazolin-4(3H)-one]	11 to 100
Nc1nc(F)c(-c2ccc(C3CCOCC3)c(CN3CCCC3)c2)nc1-c1ccc2c(c1)CCNC2=O [Example I-147, 6-(3-amino-5-fluoro-6-(3-(pyrrolidin-1-ylmethyl)-4-(tetrahydro-2H-pyran-4-yl)phenyl)pyrazin-2-yl)-3,4-dihydroisoquinolin-1(2H)-one]	0.1 to 10
COC1CN(Cc2cc(-c3nc(-c4cc(F)c5c(c4)CCNC5=O)c(N)nc3F)ccc2N2CCOCC2)C1 [Example I-192, 6-(3-amino-5-fluoro-6-(3-((3-methoxyazetidin-1-yl)methyl)-4-morpholinophenyl)pyrazin-2-yl)-8-fluoro-3,4-dihydroisoquinolin-1(2H)-one]	0.1 to 10
Nc1nc(F)c(-c2ccc(N3CCN(CC4CC4)CC3)cc2)nc1-c1ccc2c(c1)C1(CC1)CNC2=O [Example I-108, 6′-(3-amino-6-(4-(4-(cyclopropylmethyl)piperazin-1-yl)phenyl)-5-fluoropyrazin-2-yl)-2′,3′-dihydro-1′H-spiro[cyclopropane-1,4′-isoquinolin]-1′-one]	0.1 to 10
CN(C)Cc1c(N2CCOCC2)ccc(-c2nc(-c3cc(F)c4c(c3)CCNC4=O)c(N)nc2F)c1F [Example I-242, 6-(3-amino-6-(3-((dimethylamino)methyl)-2-fluoro-4-morpholinophenyl)-5-fluoropyrazin-2-yl)-8-fluoro-3,4-dihydroisoquinolin-1(2H)-one]	11 to 100
